The values that follow come from PMC9059125 (Journal of Medicinal Chemistry, 2022).

Molecules are shown by their SMILES. Like-named read-outs stand apart in the source and are kept apart here. *1 amine or outer side, *2 acyl side, *3 side chain or, on linkers, in order; H or OH if unused. Where a SMILES comes first, the peptide text is derived from it. Bridges are numbered along the chain shown (N, C = ends). X1 = O=C(CCC[*:2])[*:1] Bounds are passed on as bounds.

For data set [1] the following is noted: simulated gi fluid, pH 6.8.
The target in data set [2] is T1, human oxytocin receptor (OTR) (Homo sapiens, UniProt P30559).
T1 construct: NIMH PDSP (data provider)
T1 sequence (P30559 1-389): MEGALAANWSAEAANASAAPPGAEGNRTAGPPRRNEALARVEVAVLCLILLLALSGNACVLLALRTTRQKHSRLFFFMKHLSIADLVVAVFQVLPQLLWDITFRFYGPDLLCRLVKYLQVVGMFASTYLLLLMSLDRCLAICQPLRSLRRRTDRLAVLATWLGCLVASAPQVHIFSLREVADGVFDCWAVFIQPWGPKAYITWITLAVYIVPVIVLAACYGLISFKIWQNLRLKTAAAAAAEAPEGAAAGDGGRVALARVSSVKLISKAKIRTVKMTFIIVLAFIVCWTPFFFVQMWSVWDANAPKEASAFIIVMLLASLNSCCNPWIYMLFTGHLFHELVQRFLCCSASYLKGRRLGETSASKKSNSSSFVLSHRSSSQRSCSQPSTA
Put plainly: NIMH PDSP FLIPR-TETRA Ca2+-mobilization assay. Type of data set: cell-based.

For data set [3] the following is noted: simulated gi fluid, pH 1.2.
The conditions of data set [4]: simulated gi fluid; cited from earlier work.
In the next data set the target is T2, hOTR (Homo sapiens, UniProt P30559).
T2 construct: expressed in transfected cells; host or cells: COS-1 cells (ATCC), transient transfection with FuGENE HD
T2 sequence (P30559 1-389): T1 sequence (P30559 1-389)
Description: cell-based.

The nature of a further data set: in vitro. As to conditions: pig, simulated gi fluid, pH 6.8.

Regarding `CC[C@H](C)[C@@H]1NC(=O)[C@H](Cc2ccc(O)cc2)NC(=O)[C@@H](N)CSSC[C@@H](C(=O)N2CCC[C@H]2C(=O)N[C@@](C)(CC(C)C)C(=O)NCC(N)=O)NC(=O)[C@H](CC(N)=O)NC(=O)[C@H](CCC(N)=O)NC1=O` [(Cα-Me)L^8OT], in data set [1] (pig), the “t1/2 SIF” value was 4.4 ± 0.3 h. Also, in data set [2], the concentration giving a half-maximal response (EC50) was determined as 3.8 ± 2.7 nM, the “Emax ± SEM OTR” value is on record as 105 ± 11 and the “bioactivity at OTR compared to native OT” value is “equipotent to native OT”.
As to `CC[C@H](C)[C@@H]1NC(=O)[C@H](Cc2ccc(O)cc2)NC(=O)[C@@H](N)CSSC[C@@H](C(=O)N2CCC[C@H]2C(=O)N[C@H](CC(=O)NCC(N)=O)CC(C)C)NC(=O)[C@H](CC(N)=O)NC(=O)[C@H](CCC(N)=O)NC1=O` [(β^3-homo)L^8OT], the “t1/2 SIF” value in data set [1] (pig) is recorded as 3.6 ± 0.1 h.
In the case of `CC[C@H](C)[C@@H]1NC(=O)[C@H](Cc2ccc(OC)cc2)NC(=O)CCCSC[C@@H](C(=O)N2CCC[C@H]2C(=O)N[C@@H](CC(C)C)C(=O)NCC(N)=O)NC(=O)[C@H](CC(N)=O)NC(=O)[C@H](CCC(N)=O)NC1=O` [Carbetocin, reference compound] (Y(Me)IQNCPLG-NH2; linker N-5 via X1), the “t1/2 SGF” value in data set [3] was >24 h. Besides, in data set [1] (pig), the “t1/2 SIF” value is 0.217 ± 0.017 h.
Turning to `NC(=O)CC[C@@H]1NC(=O)[C@H](Cc2ccccc2)NC(=O)[C@H](Cc2ccc(O)cc2)NC(=O)CCSSC[C@@H](C(=O)N2CCC[C@H]2C(=O)N[C@H](CCCN=C(N)N)C(=O)NCC(N)=O)NC(=O)[C@H](CC(N)=O)NC1=O` [Desmopressin], the “reported t1/2 in SIF” value in data set [4] is 30 min.
For the molecule `CC(C)C[C@@H]1NC(=O)[C@H](CCC(=O)O)NC(=O)[C@@H](NC(=O)[C@H](CCC(=O)O)NC(=O)[C@H](CC(=O)O)NC(=O)[C@H](N)CC(N)=O)CSSC[C@@H]2NC(=O)[C@H](C)NC(=O)[C@H](C(C)C)NC(=O)[C@H](CC(N)=O)NC(=O)[C@H](C(C)C)NC(=O)[C@H](CSSC[C@@H](C(=O)N[C@H](CC(C)C)C(=O)O)NC(=O)CNC(=O)[C@H]([C@@H](C)O)NC2=O)NC1=O` [Dolcanatide, reference compound], the “t1/2 SGF” value in data set [3] is >24 h. Further, the “t1/2 SIF” value in data set [1] is >24 h.
For the molecule `CC[C@H](C)[C@@H]1NC(=O)[C@H](Cc2ccc(O)cc2)NC(=O)[C@@H](N)CSSC[C@@H](C(=O)N2CCC[C@H]2C(=O)N[C@@H](CC(C)C)C(=O)NNC(N)=O)NC(=O)[C@H](CC(N)=O)NC(=O)[C@H](CCC(N)=O)NC1=O` [G^9(aza)OT], in data set [1], the “t1/2 SIF” value is <0.05 h. Also, in data set [2], the midpoint of the response, the EC50, lay at 2.24 ± 0.63 nM and the “Emax ± SEM OTR” value is 111 ± 6.
For `CC[C@H](C)[C@@H]1NC(=O)[C@H](Cc2ccc(O)cc2)NC(=O)[C@@H]2CSSC[C@@H]3NC(=O)[C@H](C(C)C)NC(=O)[C@@H]4CCCN4C(=O)[C@H](Cc4c[nH]c5ccccc45)NC(=O)[C@H](CO)NC(=O)[C@@H]4CSSC[C@H](NC(=O)[C@H]([C@@H](C)O)NC(=O)[C@H](CCC(=O)O)NC(=O)CNC(=O)[C@H](CSSC[C@H](NC(=O)[C@H](CC(N)=O)NC(=O)[C@H](CCC(N)=O)NC1=O)C(=O)N[C@@H]([C@@H](C)O)C(=O)N4)NC(=O)[C@H](C(C)C)NC(=O)[C@@H]1CCCN1C(=O)[C@H](CC(C)C)NC(=O)CNC(=O)[C@H](CC(N)=O)NC(=O)[C@H](CCCNC(=N)N)NC(=O)[C@H]([C@@H](C)O)NC3=O)C(=O)N[C@@H](C(C)C)C(=O)NCC(=O)NCC(=O)N[C@@H]([C@@H](C)O)C(=O)N2` [KB1(OT^[2-5])], the concentration giving a half-maximal response (EC50) at hOTR is > 10 µM. For the same molecule, the “t1/2 SIF” value in data set [1] is on record as >24 h.
The corresponding values for `CC[C@H](C)[C@@H]1NC(=O)[C@H](Cc2ccc(O)cc2)NC(=O)[C@@H]2CSSC[C@@H]3NC(=O)[C@H](C(C)C)NC(=O)[C@@H]4CCCN4C(=O)[C@H](Cc4c[nH]c5ccccc45)NC(=O)[C@H](CO)NC(=O)[C@@H]4CSSC[C@H](NC(=O)[C@H]([C@@H](C)O)NC(=O)[C@H](CCC(=O)O)NC(=O)CNC(=O)[C@H](CSSC[C@H](NC(=O)[C@H](CC(N)=O)NC(=O)[C@H]([C@@H](C)O)NC1=O)C(=O)N[C@@H]([C@@H](C)O)C(=O)N4)NC(=O)[C@H](C(C)C)NC(=O)[C@@H]1CCCN1C(=O)[C@H](CC(C)C)NC(=O)CNC(=O)[C@H](CC(N)=O)NC(=O)[C@H](CCCNC(=N)N)NC(=O)[C@H]([C@@H](C)O)NC3=O)C(=O)N[C@@H](C(C)C)C(=O)NCC(=O)NCC(=O)N[C@@H]([C@@H](C)O)C(=O)N2` [KB1(T^4G^7OT^[2-5])] are > 10 µM and >24 h.
For `CC[C@H](C)[C@@H]1NC(=O)[C@H](Cc2ccc(O)cc2)NC(=O)[C@@H]2CSSC[C@@H]3NC(=O)[C@H]([C@@H](C)CC)NC(=O)[C@@H]4CCCN4C(=O)[C@H](Cc4c[nH]c5ccccc45)NC(=O)[C@H](CO)NC(=O)[C@@H]4CSSC[C@H](NC(=O)[C@H]([C@@H](C)O)NC(=O)[C@H](CCC(=O)O)NC(=O)CNC(=O)[C@H](CSSC[C@H](NC(=O)[C@H](CC(N)=O)NC(=O)[C@H]([C@@H](C)O)NC1=O)C(=O)N[C@@H]([C@@H](C)O)C(=O)N4)NC(=O)[C@H](C(C)C)NC(=O)[C@@H]1CCCN1C(=O)[C@H](CC(C)C)NC(=O)CNC(=O)[C@H](CC(N)=O)NC(=O)[C@H](CCCNC(=N)N)NC(=O)[C@H](CCCCN)NC3=O)C(=O)N[C@@H]([C@@H](C)O)C(=O)N[C@@H](CC(C)C)C(=O)NCC(=O)N[C@@H]([C@@H](C)O)C(=O)N2` [KB7(T^4G^7OT^[2-5])] the same measures were > 10 µM and >24 h.
For `CC(C)C[C@@H]1NC(=O)CNC(=O)[C@H](CC(N)=O)NC(=O)[C@H](CCCNC(=N)N)NC(=O)[C@H]([C@@H](C)O)NC(=O)[C@@H]2CSSC[C@@H]3NC(=O)[C@H]([C@@H](C)O)NC(=O)CNC(=O)CNC(=O)[C@H](C(C)C)NC(=O)[C@@H]4CSSC[C@H](NC(=O)[C@H]([C@@H](C)O)NC(=O)[C@H](CSSC[C@H](NC(=O)[C@H](C(C)C)NC(=O)[C@@H]5CCCN5C1=O)C(=O)NCC(=O)N[C@@H](CCC(=O)O)C(=O)N[C@@H]([C@@H](C)O)C(=O)N4)NC(=O)CNC(=O)[C@@H]1CCCN1C(=O)[C@H]([C@@H](C)O)NC(=O)[C@H](CC(N)=O)NC3=O)C(=O)N[C@@H](CO)C(=O)N[C@@H](Cc1c[nH]c3ccccc13)C(=O)N1CCC[C@H]1C(=O)N[C@@H](C(C)C)C(=O)N2` [Kalata B1, reference compound], the “t1/2 SGF” value in data set [3] is given as >24 h. The “t1/2 SIF” value in data set [1] is given as >24 h.
On to `C[C@@H]1NC(=O)[C@@H]2CCCN2C(=O)[C@H](CC(N)=O)NC(=O)[C@@H]2CSSC[C@H](N)C(=O)N[C@H]3CSSC[C@H](NC1=O)C(=O)N[C@@H]([C@@H](C)O)C(=O)NCC(=O)N[C@H](C(=O)N[C@@H](Cc1ccc(O)cc1)C(=O)O)CSSC[C@H](NC(=O)[C@H](Cc1ccc(O)cc1)NC(=O)[C@H](CCC(=O)O)NC3=O)C(=O)N2` [Linaclotide] (HELM PEPTIDE1{C.C.E.Y.C.C.N.P.A.C.T.G.C.Y}$PEPTIDE1,PEPTIDE1,1:R3-6:R3|PEPTIDE1,PEPTIDE1,2:R3-10:R3|PEPTIDE1,PEPTIDE1,5:R3-13:R3$$$V2.0), for which the “reported t1/2 in SIF” value in data set [4] is 16 min. Further, in data set [3], the “t1/2 SGF” value was >24 h. For the same molecule, the “t1/2 SIF” value in data set [1] (pig) was 0.9 ± 0.05 h.
As to `CC[C@H](C)[C@@H]1NC(=O)[C@H](Cc2ccc(O)cc2)NC(=O)[C@@H](N)CSSC[C@@H](C(=O)N2CCC[C@H]2C(=O)N[C@@H](CC(C)C)C(=O)NCC(N)=O)NC(=O)[C@H](CC(N)=O)NC(=O)[C@H](CCC(N)=O)NC1=O` [Oxytocin, reference compound], in data set [3], the “t1/2 SGF” value is >24 h. In addition, the “t1/2 SIF” value in data set [1] (pig) was 0.13 ± 0.017 h.
The corresponding values for `CC(C)C[C@H](NC(=O)[C@@H]1CSSC[C@@H]2NC(=O)[C@H](CC(C)C)NC(=O)[C@H](CCC(=O)O)NC(=O)[C@@H](NC(=O)[C@H](CCC(=O)O)NC(=O)[C@H](CC(=O)O)NC(=O)[C@@H](N)CC(N)=O)CSSC[C@H](NC(=O)[C@H](C)NC(=O)[C@H](C(C)C)NC(=O)[C@H](CC(N)=O)NC(=O)[C@H](C(C)C)NC2=O)C(=O)N[C@@H]([C@@H](C)O)C(=O)NCC(=O)N1)C(=O)O` [Plecanatide, reference compound] are >24 h and 0.083 ± 0.017 h.
For `CC[C@H](C)[C@@H]1NC(=O)[C@@H]2CSSC[C@H](NC(=O)[C@H](CCCNC(=N)N)NC(=O)[C@@H]3CSSC[C@H](NC1=O)C(=O)N[C@@H]([C@@H](C)O)C(=O)N[C@@H](CCCNC(=N)N)C(=O)NCC(=O)N[C@@H](Cc1ccccc1)C(=O)N3)C(=O)N[C@@H](CC(C)C)C(=O)N[C@H]1CSSC[C@H](NC(=O)[C@H](C(C)C)NC(=O)CNC(=O)[C@H](CCCNC(=N)N)NC(=O)[C@H](CCCNC(=N)N)NC1=O)C(=O)N[C@@H](CCCNC(=N)N)C(=O)N2` [RTD-1] (HELM PEPTIDE1{G.F.C.R.C.L.C.R.R.G.V.C.R.C.I.C.T.R}$PEPTIDE1,PEPTIDE1,3:R3-16:R3|PEPTIDE1,PEPTIDE1,5:R3-14:R3|PEPTIDE1,PEPTIDE1,7:R3-12:R3|PEPTIDE1,PEPTIDE1,1:R1-18:R2$$$V2.0), the “t1/2 SGF” value in data set [3] is listed as 2.2 ± 0.3 h. In addition, the “t1/2 SIF” value in data set [1] is 0.05 ± 0.017 h. For the same molecule, the half-life in the data set “in vitro” was < 3 min.
On to `NC(=O)CC[C@@H]1NC(=O)[C@H](Cc2ccccc2)NC(=O)[C@H](Cc2ccc(O)cc2)NC(=O)[C@@H](N)CSSC[C@@H](C(=O)N2CCC[C@H]2C(=O)N[C@@H](CCCN=C(N)N)C(=O)NCC(N)=O)NC(=O)[C@H](CC(N)=O)NC1=O` [Vasopressin, reference compound], for which the “t1/2 SGF” value in data set [3] is listed as >24 h. Besides, the “t1/2 SIF” value in data set [1] is <0.05 h.
